# Data from patent US20040019013A1, “Formulation for the parenteral application of a sodium channel blocker” (Boehringer Ingelheim Pharma GmbH & Co. KG, Ingelheim, …, priority 2002, published 2004).
# Experiment: Solubility experiments and 1H-NMR spectra: complexing with cyclodextrins
# Format: physicochemical
# Details: hydrochloride of BIII 890; γ-cyclodextrin, HPγCD, HPβCD and SBEβCD
compound,measurement,value
"C[C@@H](CN1CC[C@@]2(C)c3cccc(O)c3C[C@@H]1C2(C)C)OCc1ccccc1 [BIII 890, (−)-(1R,2″S)-2-(2″-benzyloxy)propyl-4′-hydroxy-5,9,9-trimethyl-6,7-benzomorphan]",complexing of the active substance by cyclodextrins,complex
